The values that follow come from US20090130165A1, “MIF Inhibitors” (Cortical Pty Ltd, priority 2005, published 2009).

Like-named read-outs stand apart in the source and are kept apart here. Where only a bound is given, the exact number is not on record here.

The subject of data set [1] is C57Bl/6j mice. In words: In vivo assay of MIF antagonism: murine endotoxic shock model, serum TNF. Also noted: species or system mouse. The following applies: intra-peritoneal, 10, 1 and 0.1 mg/kg at 24 hours and 1 hour before LPS 1 mg/kg (FIG. 3). As to the method:
The activities of compounds were studied in the murine endotoxic shock model. This model has been previously shown to be dependent on MIF^(14). Administration of a compound which inhibits the cytokine activity of MIF would be expected to result hi a reduction in serum level s of the pro-inflammatory cytokine TNF.
Endotoxaemia was induced by intra-peritoneal Injection of C57Bl/6j mice with lipopolysaccharide (LPS) (1 mg/kg) in 200 μl saline. Animals were treated with either a saline solution (control) only, or LPS with vehicle or compounds B1 and A3 in vehicle at doses of 10, 1 and 0.1 mg/kg body weight, administered by intra-peritoncal injection at 24 hours and 1 hour before intra-peritoneal LPS injection. After 1 hour mice were humanely killed by CO2 inhalation then neck dislocation. Serum was obtained from blood obtained by cardiac puncture prior to death and measured for TNF levels by ELISA according to the manufacturer's instructions.

For data set [2], the system named is IL-1 induced COX-2 expression in S112 human dermal fibroblasts. In words: Inhibition of interleukin-1 induction of cyclooxygenase-2 expression in S112 human dermal fibroblasts. It counts as cell-based. The following applies: S112 cells, up to 100 μM compound, IL-1 0.1 ng/ml, 6 hours (FIG. 2). The source says: The activity of compounds was studied in a bioassay for MIF-dependent cytokine effects of human S112 dermal fibroblasts. In these cells the induction of the expression of cyclooxygenase-2 (COX-2) protein by interleukin 1 (IL-1) is dependent upon the presence of endogenous MIF^(13). The expression of COX2 proteins is therefore sensitive to depiction of endogenous MIF by neutralizing antibody, gene knockout of targeting with small molecule inhibitors. A compound with the ability to inhibit the biological activity of MIF would therefore inhibit die activation of COX2 expression hi response to IL-1.
S112 human dermal fibroblasts were propagated in RPMI/10% foetal calf serum (FCS). Prior to experimentation, cells were seeded at 10^5 cells/ml in RPMI/0.1% BSA for 18 hours. Cells were treated with recombinant human IL-1 (0.1 ng/ml) and with each compound at concentrations ranging up to 100 μM. A control was treated only with recombinant human TL-1 (0.1 ng/ml) and vehicle (DMSO). After 6 hours, cells were collected and intracellular COX-2 protein determined by permeabilisation flow cytometry. […] Cellular fluorescence was determined using a flow cytometer. At least 5000 events were counted for each reading, each of which was performed in duplicate, and the results expressed in mean fluorescence intensity (MFI) after subtraction of negative control-labelled cell fluorescence.

The target of data set [3] is T1, Recombinant human MIF protein (Homo sapiens, UniProt P14174).
T1 sequence (P14174 2-115 limits assumed): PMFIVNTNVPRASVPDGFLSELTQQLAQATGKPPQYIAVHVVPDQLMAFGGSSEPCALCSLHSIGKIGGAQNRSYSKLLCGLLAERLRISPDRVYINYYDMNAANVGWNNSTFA
In words: Inhibition of MIF tautisomerase activity (L-dopachrome). The format is biochemical. Conditions: mean±standard deviation of 2-4 experiments. As to the method: MIF protein has the ability in vitro to catalyze the tautisomerization of dopachrome^(15).
Recombinant human MIF protein was pre-incubated with compounds as indicated prior to the addition of L-dopachrome substrate. Tautomerase activity was determined by measurement of die decrease in absorbance at 475 nm after 2 min. […]

Data set [4] addresses T2, immobilized recombinant MIF protein (Homo sapiens, UniProt P14174).
T2 sequence (P14174 2-115 limits assumed): T1 sequence (P14174 2-115 limits assumed)
In words: Interaction of compounds with MIF protein by Surface Plasmon Resonance (Biacore S51). It counts as binding. The following applies: SPR; for kon / Kinetics Method Kd (10^−3 s^−1) / Kd: immobilized MIF; for kon: association rate, read-out: Kinetics Method Ka (10^3 M^−1s^−1); for Kinetics Method Kd (10^−3 s^−1): dissociation rate; for equilibrium dissociation constant (KD) values, in words: immobilized recombinant MIF. As to the method: The interaction of compounds with MIF protein was characterized by Surface Plasmon Resonance (SPR) analysis using an S51 (Biacore International AB) automated small molecule biosensor assay system. Recombinant MIF protein was immobilized on a carboxymethyl dextran biosensor chip using amine coupling chemistry. Compound binding to the immobilized MIF protein was measured at 11 concentrations up to 100 uM (in duplicate), with corrections for the DMSO used as a solvent at a final concentration of 5%. The change in SPR output relative to that of a control underivatized reference spot was recorded over time. The affinity and stoichiometry of interaction was calculated using steady state and/or kinetics evaluation methods with software supplied by the manufacturer.

Data set [5] relates to LPS-induced IL-6 production in RAW264.7 mouse macrophage cell line. Description: Inhibition of LPS-induced production of IL-6 in RAW264.7 macrophages. The following applies: 50 uM compound, 100 ng/ml LPS 4 hr, RAW264.7 cells, relative to LPS+DMSO control. The format is cell-based. As to the method:
MIF is an important factor in the innate immune response to toxins such as the bacterial endotoxin lipopolysaccharide (LPS). […] A compound with the ability to inhibit the biological activity of MIF would therefore inhibit the activation of cytokine production by macrophages in response to LPS. The RAW264.7 mouse macrophage cell line was propagated in DMEM/10% foetal calf serum (FCS) at 37° C. in 5% CO2. 24 hr prior to assay cells were seeded in 96-well tissue culture plates. Cells were allowed to adhere for 4 hr prior to transfer to DMEM/0.5% FCS for 18 hr. Cells were then treated with 50 uM compound in DMSO for 30 min prior to stimulation for 4 hr with 100 ng/ml LPS. Cell culture supernatants were then collected from each well and assayed for IL-6 levels by ELISA (R&D Systems) according to the manufacturer's instructions.

Data set [6] has the same test system. The description is as above. It counts as cell-based. The following applies: RAW264.7 cells, up to 100 μM compound (FIG. 1).
Data set [7] is described as follows: Lower limits of aqueous solubility by nephelometry. The format is physicochemical. Conditions: phosphate-buffered saline with 0.005% (v/v) P20 and 5% DMSO, aqueous with cosolvent or surfactant or cyclodextrin, kinetic from dmso stock, 0.005% (v/v) P20, 5% DMSO, read-out: Solubility Lower Limit Range. As to the method:
Lower limits of aqueous compound solubility were determined in a nepholometer in phosphate-buffered saline containing 0.005% (v/v) P20 and a final concentration of 5% DMSO. Briefly, compounds were initially dissolved in DMSO as a 10 mM stock solution and diluted to 1 mM and 0.5 mM working solutions with neat DMSO. The compounds were then titrated in DMSO and a constant volume of DMSO stock added to filtered PBS/P20 solution so that the final DMSO concentration was 5%. The solubility was then determined in clear, flat-bottom 96-well plates using the nephelometer and reported as the concentration range at which the compound begins to precipitate from solution.

Data set [8] has as its system Recombinant human MIF-induced leukocyte-endothelial cell adhesion in mice. In words: rhMIF-induced leukocyte adhesion, intravital microscopy of cremaster muscle. The format is in vivo, mouse. The following applies: 30 mg/kg intraperitoneal 10 minutes prior to intrascrotal MIF, 4 hours (FIG. 5). The text has this: As will be known to those skilled in the art, the adherence of leukocytes to the endothelium in vivo can be studied using the technique of intravital microscopy^(18,19). As MIF induces leukocyte adherence to vascular endothelium as measured using intravital microscopy, a compound inhibiting the Cytokine or biological activity of MIF might be expected to inhibit the effects of MIF observable using intravital microscopy.
Mice were anesthetised with ketamine/xylazine, and the cremaster muscle was exteriorized onto an optically-clear viewing pedestal. The cremasteric microcirculation was visualized using an intravital microscope (Axioplan 2 Imaging; Carl Zeiss, Australia) with a 20× objective lens (LD Achroplan 20×/0.40 NA, Carl Zeiss, Australia) and a 10× eyepiece. Three-five postcapillary venules (25-40 μm in diameter) were examined for each experiment. Images were visualized using a video camera and recorded on video-tape for subsequent playback analysis. Recombinant human MIF ([…]) was injected intrascrotally in 150 μL saline, prior to intravital microscopy 4 hours later. Leukocyte-endothelial cell adhesion, was assessed as described by Gregory et al^(19). Compound 13 at a dose of 30 mg/kg or vehicle were administered by intraperitoneal injection 10 minutes prior to intrascrotal injection of MIF.

Data set [9] concerns mice. In words: Delayed-type hypersensitivity reaction to mBSA, footpad swelling. It counts as in vivo, mouse. The following applies: 5 and 15 mg/kg/24 h IP, twice daily for 7 days prior to mBSA challenge and further 24 h (FIG. 4). The text has this:
Delayed-type hypersensitivity reactions, which are initiated by T lymphocyte responses to recall antigens and mediated by many cell types including macrophages, are known to be dependent on the cytokine or biological activity of MIF^(16,17). For example, an anti-MIF monoclonal antibody suppresses delayed-type hypersensitivity reactions in vivo to methylated bovine scrum albumin (mBSA) injected into the skin of animals preimmunised with mBSA^(16). A compound inhibiting die cytokine or biological function of MIF might be expected to inhibit delayed-type hypersensitivity reactions in vivo.
Mice were immunised on day 0 with 200 μg of methylated BSA (mBSA; Sigma Chemical Co., Castle Hill, Australia) emulsified in 0.2 ml of Freund's complete adjuvant (CFA; Sigma) injected subcutaneously in the flank skin. At day 7, mice were given 100 μg mBSA in 0.1 ml CFA by intradermal injection at the base of the tail. […] Mice were killed 24 h later and footpad swelling quantified using micro calipers (Mitutoyo, Kawasaki-shi, Japan). […] Results were expressed as the difference in footpad swelling between mBSA and saline-injected footpads, and expressed as change in footpad thickness (mm). […] Treatment with compound 13 continued for a further 24 h and changes in footpad thickness relative to control paws were measured at that time.

Where [10] appears, read: kinetics evaluation, read-out: Kinetics Method Kd.
Where [11] appears, read: steady state evaluation, 5% DMSO, read-out: Steady State Method (equilibrium dissociation constant KD).

`O=C(O)CCSCC(=O)c1ccc2c(c1)CC(=O)N2` [Compound 2]: the “suppression of LPS-induced serum TNF levels, in words” value (“suppression” for short) in [1] is on record as “significant dose-dependent suppression”. Besides, in data set [2], the “inhibition of IL-1 induced COX-2 expression, in words” value is “dose-dependent inhibition”.

In the case of `CCCCSCC(=O)c1ccc2[nH]c(=O)sc2c1` [Compound 19, 6-((Butylthio)acetyl)-1,3-benzothiazol-2(3H)-one], in data set [3] (50 uM compound), the inhibition at 50 µM was 9 ± 4%. In data set [3] (100 uM compound), the inhibition at 100 µM is 17 ± 8%. The “suppression” value in data set [1] was “significant dose-dependent suppression”. Also, in data set [4], the kon came out at 2200 ± 1000 M⁻¹ s⁻¹; the “Kinetics Method Kd (10^−3 s^−1)” value is reported as 6.2 ± 1.2 10^−3 s^−1; the “equilibrium dissociation constant (KD) values, in words” value (“equilibrium dissociation constant” for short) is recorded as “low micromolar range”. For the same molecule, in data set [4] (setting [10]), the Kd worked out at 3.6 ± 1 µM. For the same molecule, the Kd in data set [4] (setting [11]) stood at 27 ± 2.3 µM. At 50 µM the inhibition in data set [5] was 82 ± 13%. The molecule also displayed an IC50 in data set [6] (Mus musculus) of 20 µM. In addition, in data set [6], the “inhibition of LPS-induced IL-6 production, in words” value is given as “dose-dependent inhibition”.

With `O=C(O)CCSCC(=O)c1ccc2[nH]c(=O)[nH]c2c1` [Compound 4, 3-((2-oxo-2-(2-oxo-2,3-dihydro-1H-benzimidazol-5-yl)ethyl)thio)propanoic acid], the “suppression” value in data set [1] is on record as “significant dose-dependent suppression”. Besides, in data set [4] (setting [11]), the equilibrium dissociation constant (Kd) was 5.1 µM. For the same molecule, the “equilibrium dissociation constant” value in data set [4] is “low micromolar range”. In addition, the solubility in data set [7] is more than 140 µg/mL. In [5], this molecule came in with an inhibition at 50 µM of 5 ± 49%.

Turning to `O=C(O)CCSCC(=O)c1cc2c(cc1Cl)NC(=O)C2` [Compound 13, 3-((2-(6-chloro-2-oxo-2,3-dihydro-1H-indol-5-yl)-2-oxoethyl)thio)propanoic acid], the “reduction of MIF-induced leukocyte adhesion” value in data set [8] is “approximately 50%”. Further, the “suppression” value in data set [1] was “significant dose-dependent suppression”. Also, in data set [4], the kon was 600 ± 200 M⁻¹ s⁻¹; the “Kinetics Method Kd (10^−3 s^−1)” value is given as 1.3 ± 0.3 10^−3 s^−1; the “equilibrium dissociation constant” value is listed as “low micromolar range”. For the same molecule, in [4] (setting [10]), the Kd worked out at 2.5 ± 1.2 µM. Moreover, in [4] (setting [11]), the Kd came to 10 ± 1.4 µM. For the same molecule, the inhibition at 50 µM in [5] was 32 ± 30%. Also, in data set [9], the “inhibition of DTH reactions (change in footpad thickness), in words” value is listed as “significant inhibition”.

As a reminder, the inhibition is the share of the control response that was lost under treatment. In general, Kd refers to the constant that tells how readily two partners part at equilibrium. The IC50 is the midpoint of a concentration-inhibition curve. A higher IC50 goes with weaker potency. One may read the solubility as how much of the substance goes into solution per volume.
